# Earlier results, collected in US20080057142A1, “COMPOSITIONS AND METHODS FOR WEIGHT-LOSS AND WEIGHT-LOSS MAINTENANCE IN DAYTIME AND NIGHTTIME FORMULATION” (priority 2005, published 2008).
# Details: EGCG, but not related catechins
substance,measurement,value
epigallocatechin-3-gallate [EGCG],body weight,reduced body weight
same,food intake,significantly reduced food intake
